Tests used:
[1] = molecular target: Rhodesain (Trypanosoma brucei rhodesiense) (UniProt Q95PM0); test: Inhibition of Trypanosoma brucei rhodesiense rhodesain expressed in Pichia pastoris X33 at 100 uM using Cbz-Phe-Arg-AMC as substrate measured over 10 mins by fluorescence microplate reader analysis
[2] = system: Trypanosoma brucei brucei; test: Antitrypanosomal activity against trypomastigote form of Trypanosoma brucei brucei TC 221 after 24 hrs by alamar blue assay; format: functional, organism-based; details: TC 221, 24 h
[3] = Cytotoxicity against mouse J774.1 cells incubated for 24 hrs by alamar blue assay; format: cell-based; details: read-out: TC50

Chain of Rhodesain (Trypanosoma brucei rhodesiense) (Q95PM0 1-450): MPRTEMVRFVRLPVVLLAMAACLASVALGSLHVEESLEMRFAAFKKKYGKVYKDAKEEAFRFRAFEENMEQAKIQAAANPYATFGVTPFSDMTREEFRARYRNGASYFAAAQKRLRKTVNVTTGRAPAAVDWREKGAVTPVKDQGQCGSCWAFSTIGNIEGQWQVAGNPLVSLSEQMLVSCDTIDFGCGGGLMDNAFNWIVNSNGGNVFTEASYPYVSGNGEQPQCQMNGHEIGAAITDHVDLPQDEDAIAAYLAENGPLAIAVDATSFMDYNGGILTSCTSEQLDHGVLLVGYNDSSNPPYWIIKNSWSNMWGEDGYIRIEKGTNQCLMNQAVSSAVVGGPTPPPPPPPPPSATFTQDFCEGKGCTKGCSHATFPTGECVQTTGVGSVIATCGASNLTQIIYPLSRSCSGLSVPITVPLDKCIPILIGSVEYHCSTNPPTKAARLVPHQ

SMILES | inhibition [1] | IC50 [2] | CC50 at 24 h [3]
N#C/C=C\CCCN1C(=O)CN=C(c2ccccc2)c2ccccc21 | 27% | > 40 µM | 
COC(=O)/C=C\CCN1C(=O)CN=C(c2ccccc2)c2ccccc21 | 27% | > 40 µM | 
COC(=O)/C=C/CNC(=O)CN1C(=O)[C@@H](COC(=O)NC23CC4CC(CC(C4)C2)C3)N=C(c2ccccc2)c2ccccc21 |  | 4.8 µM | 
COC(=O)/C=C/CCCCN1C(=O)CN=C(c2ccccc2)c2ccccc21 | 27% | 15.9 µM | 
CC(=O)/C=C/CCCN1C(=O)CN=C(c2ccccc2)c2ccccc21 | 27% | 4.6 µM | 31.8 µM
CC(=O)/C=C/CCCCN1C(=O)CN=C(c2ccccc2)c2ccccc21 | 27% | 13.1 µM | 
N#C/C=C\CCCCN1C(=O)CN=C(c2ccccc2)c2ccccc21 | 27% | 14.5 µM | 
N#C/C=C\CCN1C(=O)CN=C(c2ccccc2)c2ccccc21 | 27% | > 40 µM | 
CC(=O)/C=C/CCN1C(=O)CN=C(c2ccccc2)c2ccccc21 | 27% | 5.3 µM | > 100 µM
COC(=O)/C=C/CCCN1C(=O)CN=C(c2ccccc2)c2ccccc21 | 27% | 23.5 µM | 

Source: ChEMBL document CHEMBL3822379, “Development of novel 1,4-benzodiazepine-based Michael acceptors as antitrypanosomal agents” (Bioorg Med Chem Lett, 2016)
